Converted amounts (≈) assume the structure as drawn. Blank lines part the entries; values can stand above or below the molecule they belong to. The source made the active and inactive calls. The rule behind the calls is not given here.
How the values were obtained:
[1] = test system: Blood; experiment: Inhibition of TNFalpha release in LPS-stimulated human whole blood by ELISA assay; type: functional, tissue-based
[2] = test system: PBMC; experiment: Inhibition of TNFalpha release in human PBMC by ELISA assay; type: functional, cell-based
[3] = target: T1, Glucocorticoid receptor (Homo sapiens, UniProt P04150)
T1 sequence (P04150 whole entry): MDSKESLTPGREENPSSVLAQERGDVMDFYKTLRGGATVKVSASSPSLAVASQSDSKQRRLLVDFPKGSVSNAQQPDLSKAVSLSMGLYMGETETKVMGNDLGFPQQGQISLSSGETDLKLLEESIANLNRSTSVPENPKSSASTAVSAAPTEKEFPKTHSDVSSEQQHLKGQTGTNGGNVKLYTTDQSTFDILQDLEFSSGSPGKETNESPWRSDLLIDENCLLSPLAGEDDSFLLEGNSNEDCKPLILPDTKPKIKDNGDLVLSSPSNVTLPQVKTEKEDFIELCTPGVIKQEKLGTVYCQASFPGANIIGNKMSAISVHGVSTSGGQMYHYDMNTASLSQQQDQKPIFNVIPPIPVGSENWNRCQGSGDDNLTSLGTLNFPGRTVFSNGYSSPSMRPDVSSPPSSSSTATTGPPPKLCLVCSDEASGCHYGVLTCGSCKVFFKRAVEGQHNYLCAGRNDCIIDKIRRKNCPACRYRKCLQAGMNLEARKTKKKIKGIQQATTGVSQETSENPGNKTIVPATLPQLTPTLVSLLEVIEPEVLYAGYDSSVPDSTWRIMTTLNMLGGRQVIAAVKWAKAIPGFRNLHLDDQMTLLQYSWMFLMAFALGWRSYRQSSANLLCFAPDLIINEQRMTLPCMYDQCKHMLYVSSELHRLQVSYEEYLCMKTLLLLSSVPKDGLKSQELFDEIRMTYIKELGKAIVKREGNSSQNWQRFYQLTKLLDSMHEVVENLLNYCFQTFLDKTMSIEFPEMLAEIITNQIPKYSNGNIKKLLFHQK
Description: Agonist activity at GR in human SW1353 cells transfected with luciferase gene linked to MMTV promoter assessed as luciferase transactivation activity

[4] = Metabolic stability in human liver microsomes assessed as phase 2 glucuronidation in presence of UDPGA; type: ADME, Microsome; settings: read-out: Stability
[5] = Oral bioavailability in rat at 2 mg/kg; type: ADME, organism-based; settings: in vivo
[6] = test system: Rattus norvegicus; experiment: Clearance in rat at 0.5 mg/kg, iv; type: ADME, organism-based; parameters: dose 0.5 mg/kg, route intravenous; settings: in vivo
[7] = test system: Rattus norvegicus; experiment: Unbound clearance in rat at 0.5 mg/kg, iv; type: ADME, organism-based; parameters: dose 0.5 mg/kg, route intravenous; settings: in vivo
[8] = test system: Liver microsomes; experiment: Metabolic stability of compound in human liver microsomes assessed as unbound intrinsic clearance by equilibrium dialysis; type: ADME, Microsome
[9] = Metabolic stability of compound in human liver microsomes assessed as intrinsic clearance by equilibrium dialysis; type: ADME, Microsome
[10] = Half life in rat; type: ADME, organism-based; settings: in vivo
[11] = test system: Rattus norvegicus; experiment: Antiinflammatory activity in rat assessed as inhibition of LPS-induced lung neutrophilia 10 ug, intratracheally administered 1 hr prior to LPS challenge measured after 1 hr; type: functional
[12] = Antiinflammatory activity in rat assessed as effective dose for inhibition of LPS-induced lung neutrophilia administered intratracheally 4 hr prior to LPS challenge; type: functional, Neutrophil
[13] = test system: Rattus norvegicus; experiment: Antiinflammatory activity in rat assessed as inhibition of LPS-induced lung neutrophilia 10 ug, intratracheally administered 1 hr prior to LPS challenge measured after 2 hrs; type: functional
[14] = Antiinflammatory activity in rat assessed as inhibition of LPS-induced lung neutrophilia 10 ug, intratracheally administered 1 hr prior to LPS challenge measured after 8 hrs; type: functional, Neutrophil
[15] = target: T2, Glucocorticoid receptor (Homo sapiens) (UniProt P04150)
T2 sequence (whole entry): T1 sequence (P04150 whole entry)
Description: Agonist activity at human GR assessed as dissociation half life

[16] = Antiinflammatory activity in rat assessed as inhibition of LPS-induced lung neutrophilia 10 ug, intratracheally administered 1 hr prior to LPS challenge measured after 4 hrs; type: functional, Neutrophil
[17] = Solubility of compound in simulated lung fluid by dialysis bag method; type: physicochemical
[18] = Antiinflammatory activity in rat assessed as inhibition of LPS-induced lung neutrophilia at 10 ug, intratracheally administered 4 hr prior to LPS challenge measured after 8 hrs; type: functional, Neutrophil
[19] = Antiinflammatory activity in rat assessed as inhibition of LPS-induced lung neutrophilia at 10 ug, intratracheally administered 4 hr prior to LPS challenge measured after 4 hrs; type: functional, Neutrophil
[20] = Antiinflammatory activity in rat assessed as inhibition of LPS-induced lung neutrophilia at 10 ug, intratracheally administered 4 hr prior to LPS challenge measured after 1 hr; type: functional, Neutrophil
[21] = target: T3, Androgen receptor (Homo sapiens) (UniProt P10275); experiment: Agonist activity at human AR; type: functional
T3 sequence (whole entry): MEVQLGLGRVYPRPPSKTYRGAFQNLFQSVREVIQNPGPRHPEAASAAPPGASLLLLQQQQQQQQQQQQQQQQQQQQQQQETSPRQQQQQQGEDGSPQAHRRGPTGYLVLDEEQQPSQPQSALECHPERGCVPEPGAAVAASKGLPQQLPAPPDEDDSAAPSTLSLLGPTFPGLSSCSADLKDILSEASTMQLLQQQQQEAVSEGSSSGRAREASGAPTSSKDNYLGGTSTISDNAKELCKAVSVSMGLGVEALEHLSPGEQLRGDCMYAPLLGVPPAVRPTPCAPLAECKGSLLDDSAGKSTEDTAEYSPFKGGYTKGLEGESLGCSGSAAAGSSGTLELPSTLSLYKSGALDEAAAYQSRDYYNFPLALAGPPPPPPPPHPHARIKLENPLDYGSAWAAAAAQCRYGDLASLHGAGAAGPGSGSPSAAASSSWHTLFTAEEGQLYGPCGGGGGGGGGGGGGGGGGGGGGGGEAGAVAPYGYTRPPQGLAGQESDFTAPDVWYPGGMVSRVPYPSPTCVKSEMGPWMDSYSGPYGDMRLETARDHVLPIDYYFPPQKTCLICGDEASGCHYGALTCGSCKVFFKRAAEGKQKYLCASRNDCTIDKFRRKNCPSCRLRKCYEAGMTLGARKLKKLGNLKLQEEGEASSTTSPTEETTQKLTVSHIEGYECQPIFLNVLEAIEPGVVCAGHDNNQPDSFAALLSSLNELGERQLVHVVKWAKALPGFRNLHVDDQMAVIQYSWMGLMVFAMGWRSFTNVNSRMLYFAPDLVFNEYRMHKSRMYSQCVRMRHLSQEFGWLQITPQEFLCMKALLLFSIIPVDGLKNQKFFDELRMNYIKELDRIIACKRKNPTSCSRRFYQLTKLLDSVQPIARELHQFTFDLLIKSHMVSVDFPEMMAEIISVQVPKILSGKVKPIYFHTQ

[22] = Antiinflammatory activity in rat assessed as inhibition of LPS-induced lung neutrophilia at 10 ug, intratracheally administered 4 hr prior to LPS challenge measured after 24 hrs; type: functional, Neutrophil
[23] = target: T3, Androgen receptor (Homo sapiens); experiment: Antagonist activity at human AR; type: functional
[24] = target: T4, Estrogen receptor (Homo sapiens) (UniProt P03372); experiment: Agonist activity at human ER; type: functional
T4 sequence (whole entry): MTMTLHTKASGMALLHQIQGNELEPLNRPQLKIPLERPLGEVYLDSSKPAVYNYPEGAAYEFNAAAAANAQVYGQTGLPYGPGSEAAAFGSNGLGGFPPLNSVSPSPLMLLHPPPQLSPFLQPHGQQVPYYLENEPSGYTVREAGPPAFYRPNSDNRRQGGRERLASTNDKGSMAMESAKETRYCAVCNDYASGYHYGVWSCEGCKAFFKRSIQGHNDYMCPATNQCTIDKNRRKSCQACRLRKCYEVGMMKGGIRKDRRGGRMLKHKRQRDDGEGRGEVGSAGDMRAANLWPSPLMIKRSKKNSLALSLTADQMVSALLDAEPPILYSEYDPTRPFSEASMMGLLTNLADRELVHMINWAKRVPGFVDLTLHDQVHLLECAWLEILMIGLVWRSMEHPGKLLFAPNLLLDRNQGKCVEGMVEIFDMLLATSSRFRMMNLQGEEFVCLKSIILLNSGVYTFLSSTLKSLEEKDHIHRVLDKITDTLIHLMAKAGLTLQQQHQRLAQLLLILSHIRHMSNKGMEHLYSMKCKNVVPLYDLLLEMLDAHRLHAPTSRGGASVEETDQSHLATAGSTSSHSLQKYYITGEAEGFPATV

[25] = Antiinflammatory activity in intratracheally dosed rat assessed as effective dose for inhibition of LPS-induced lung neutrophilia; type: functional, Neutrophil
[26] = target: T4, Estrogen receptor (Homo sapiens); experiment: Antagonist activity at human ER; type: functional

IC50 [1]: 43 nM
Compound: C[C@@H]1C[C@H]2[C@@H]3C[C@H](F)C4=CC(=O)C=C[C@]4(C)[C@@]3(F)[C@@H](O)C[C@]2(C)[C@@]1(OC(=O)c1ccco1)C(=O)SCF [FLUTICASONE FUROATE]
IC50 [2]: 0.05 nM

Compound: C[C@]12C=CC(=O)C=C1[C@@H](F)C[C@H]1[C@@H]3C[C@H]4O[C@@H](c5ccc(SCc6ccccc6)cc5)O[C@@]4(C(=O)CO)[C@@]3(C)C[C@H](O)[C@@]12F
IC50 [2]: 0.16 nM

Compound: C[C@]12C=CC(=O)C=C1[C@@H](F)C[C@H]1[C@@H]3C[C@H]4O[C@@H](c5ccc(CSc6ccccc6)cc5)O[C@@]4(C(=O)CO)[C@@]3(C)C[C@H](O)[C@@]12F
IC50 [2]: 0.22 nM

EC50 [3]: 21.1 nM
Compound: C[C@]12C=CC(=O)C=C1[C@@H](F)C[C@H]1[C@@H]3C[C@H]4O[C@@H](c5ccc(OC6=CCC(=O)N=N6)cc5)O[C@@]4(C(=O)CO)[C@@]3(C)C[C@H](O)[C@@]12F
IC50 [2]: 0.12 nM

Compound: CSc1cccc(Sc2ccc([C@@H]3O[C@@H]4C[C@H]5[C@@H]6C[C@H](F)C7=CC(=O)C=C[C@]7(C)[C@@]6(F)[C@@H](O)C[C@]5(C)[C@]4(C(=O)CO)O3)cc2)c1
IC50 [1]: 47.4 nM | IC50 [2]: 0.1 nM | microsomal CLint [4]: < 3.5 µL/min/mg | bioavailability [5]: < 0.5% | clearance [6]: 26 mL/min/kg | CL free [7]: > 18000 mL/min/kg | CL free [8]: > 3080 µL/min/mg | microsomal CLint [9]: 154 µL/min/mg | half-life [10]: 1.9 h

Compound: C[C@]12C=CC(=O)C=C1[C@@H](F)C[C@H]1[C@@H]3C[C@H]4O[C@@H](c5ccc(CSc6ccc(O)cc6)cc5)O[C@@]4(C(=O)CO)[C@@]3(C)C[C@H](O)[C@@]12F
IC50 [2]: 0.06 nM

Compound: C[C@]12C=CC(=O)C=C1[C@@H](F)C[C@H]1[C@@H]3C[C@H]4O[C@@H](c5ccc(CN6CCOCC6)cc5)O[C@@]4(C(=O)CO)[C@@]3(C)C[C@H](O)[C@@]12F
IC50 [2]: 1.81 nM

Compound: C[C@]12C=CC(=O)C=C1[C@@H](F)C[C@H]1[C@@H]3C[C@H]4O[C@@H](c5ccc(Oc6ccccc6)cc5)O[C@@]4(C(=O)CO)[C@@]3(C)C[C@H](O)[C@@]12F
IC50 [2]: 0.09 nM

IC50 [1]: 8.46 nM
Compound: CCCC1O[C@@H]2C[C@H]3[C@@H]4CCC5=CC(=O)C=C[C@]5(C)[C@H]4[C@@H](O)C[C@]3(C)[C@]2(C(=O)CO)O1 (stereo partly drawn) [BUDESONIDE]
IC50 [2]: 0.96 nM

IC50 [1]: 9.3 nM | microsomal CLint [4]: < 3.5 µL/min/mg | bioavailability [5]: < 2% | clearance [6]: 56 mL/min/kg | CL free [7]: 1800 mL/min/kg | T1/2 [15]: 9.07 h | CL free [8]: 300 µL/min/mg | microsomal CLint [9]: 51 µL/min/mg | half-life [10]: 1.1 h | solubility [17]: 0.32 µg/mL (≈ 0.639 µM)
Compound: CCC(=O)O[C@]1(C(=O)SCF)[C@H](C)C[C@H]2[C@@H]3C[C@H](F)C4=CC(=O)C=C[C@]4(C)[C@@]3(F)[C@@H](O)C[C@@]21C [FLUTICASONE PROPIONATE]
IC50 [2]: 0.1 nM | inhibition (INH) [11]: 29% | ED50 [12]: 3 µg | inhibition (INH) [13]: 11% | inhibition (INH) [14]: 10% | inhibition (INH) [16]: 8%

Compound: C[C@]12C=CC(=O)C=C1[C@@H](F)C[C@H]1[C@@H]3C[C@H]4O[C@@H](c5ccc(-c6ccccc6)cc5)O[C@@]4(C(=O)CO)[C@@]3(C)C[C@H](O)[C@@]12F
IC50 [2]: 0.41 nM

Compound: C[C@]12C=CC(=O)C=C1[C@@H](F)C[C@H]1[C@@H]3C[C@H]4O[C@@H](c5ccc(CSc6ccc(O)c(Cl)c6)cc5)O[C@@]4(C(=O)CO)[C@@]3(C)C[C@H](O)[C@@]12F
inhibition (INH) [18]: 46% | inhibition (INH) [19]: 59% | IC50 [1]: 8.73 nM | inhibition (INH) [20]: 52% | IC50 [2]: 0.03 nM | microsomal CLint [4]: 100 µL/min/mg | Activity [21]: inactive | bioavailability [5]: < 1% | inhibition (INH) [22]: 24% | Activity [23]: inactive | clearance [6]: 84 mL/min/kg | CL free [7]: > 59000 mL/min/kg | Activity [24]: inactive | ED50 [25]: 36 µg | microsomal CLint [9]: 122 µL/min/mg | Activity [26]: inactive | half-life [10]: 2.8 h | solubility [17]: 0.36 µg/mL (≈ 0.535 µM)

Compound: C[C@]12C=CC(=O)C=C1[C@@H](F)C[C@H]1[C@@H]3C[C@H]4O[C@@H](c5ccc(Cc6ccc(O)cc6)cc5)O[C@@]4(C(=O)CO)[C@@]3(C)C[C@H](O)[C@@]12F
IC50 [2]: 0.04 nM

Compound: C[C@]12C=CC(=O)C=C1[C@@H](F)C[C@H]1[C@@H]3C[C@H]4O[C@@H](c5ccc(Cc6ccccc6)cc5)O[C@@]4(C(=O)CO)[C@@]3(C)C[C@H](O)[C@@]12F
IC50 [2]: 0.17 nM

Compound: C[C@]12C=CC(=O)C=C1[C@@H](F)C[C@H]1[C@@H]3C[C@H]4O[C@@H](c5ccc(CSc6cccc(O)c6)cc5)O[C@@]4(C(=O)CO)[C@@]3(C)C[C@H](O)[C@@]12F
IC50 [2]: 0.15 nM
